Data from patent EP0197829A1, “5H-pyrido[3',4':4,5]pyrrolo[3,2-c]pyridine derivatives, process for their preparation and their antitunour activity” (SANOFI, priority 1985, dated 1986).
Read-outs that look alike come from different tables or passages of the source.

What was measured:
[1] = test system: souris BDF1 saines; test: in vivo; conditions: mouse, ip, 200 mg/kg
Method: Ainsi, l'administration à des souris hybrides CDF1 saines, en une injection unique par la voie intrapéritonéale, de doses croissantes des composés à tester (5 mg, 10 mg, 20 mg, 40 mg/kg) a permis de constater que, à ces doses, les produits étaient parfaitement tolérés puisque le taux de survivants était de 100 p. 100.
Dans les mêmes conditions, administrés à des souris BDF1 saines, les taux de survivants étaient de 100 p. 100 jusqu'à 100 mg/kg pour les dérivés 1, 3 et 9 et jusqu'à 200 mg/kg pour les dérivés 2 et 8.

[2] = test system: lignée tumorale leucémie L 1210; test: In vitro cytotoxicity on L 1210 leukemia cell culture; type: cell-based; conditions: concentration inhibiting cell proliferation by 50 p. 100, after 48 h contact; read-out: ID 50 (the source's name)
Method: 1) In vitro : (PAOLETTI et al., Chem. Biol. Interaction, 1979, 25, 45-58).
L'activité cytotoxique des composés de l'invention a été évaluée par des essais in vitro. Ces essais consistent à ajouter des concentrations croissantes du composé à tester à une culture cellulaire de la lignée tumorale leucémie L 1210 en phase exponentielle de croissance. Les cellules sont incubées à 37°C dans une étuve à C02 et comptées toutes les 24 heures. Le calcul de l'ID 50 (concentration du produit exprimée en micromole 1^-1 qui inhibe la prolifération cellulaire à 50 p. 100) est effectué après 48 heures de contact. Ainsi déterminées, les ID 50 des composés de l'invention sont rassemblées dans le tableau I ci-après : […]

[3] = test system: leucémie P 388; type: in vivo, souris hybrides CDF1; conditions: for Survivants: at day J 40
From the text: L'activité antitumorale a été testée in vivo sur différentes tumeurs selon le protocole général suivant : Toutes les souris mâles ou femelles sont inoculées par voie intrapéritonéale au jour Jo avec une quantité déterminée de cellules tumorales viables, variable selon la tumeur.
Elles sont ensuite réparties en différents lots. Chaque lot correspondant aux animaux traités par le produit à tester à une dose déterminée est composé de lO souris. Dans ce cas, le produit à tester est dissous dans l'eau distillée et il est administré, pendant n jours (J1-Jn) variables selon le protocole choisi, par voie intrapéritonéale à raison de 0,1 ml par lO g de poids des souris traitées, les doses du produit administré étant précisées dans les tableaux ci-dessous.
Le lot "Contrôle négatif", correspondant aux animaux qui ne sont pas traités par un produit, comprend 2 √N animaux, N étant égal au nombre total de souris traitées par un produit.
Enfin, tous lés essais sont conduits parallèlement à l'étude d'un lot appelé "Contrôle positif" de 10 animaux qui est traité par une molécule active, variable selon le protocole choisi, dans les mêmes conditions que les lots traités par le produit à tester, afin de valider l'essai.
L'activité antitumorale est évaluée en considérant l'augmentation du temps de survie des animaux traités par rapport à celui des animaux du lot "Contrôle négatif" selon la formule : • Jour médian de survie des animaux traités à une T/C = dose donnée de produit x 100 • Jour médian de survie des animaux "Contrôle négatif"
Un composé est considéré comme étant actif lorsque la valeur du rapport T/C est égale ou supérieure à 125 % selon le protocole retenu. Il est toxique lorsque cette valeur est égale ou inférieure à 85 %. Le produit est également considéré comme toxique lorsque la variation pondérale, exprimée en grammes et calculée par la formule : Poids moyen du lot mesuré au jour 5 - poids moyen du même lot au jour 1, est égale ou inférieure à -4g . a) Test de la leucémie P 388 (GERAN et al., Cancer Chemother, 1972, 2, 07-57).
Les essais sont effectués avec des souris hybrides CDF1 inoculées par voie intrapéritonéale avec […] leucémiques de la lignée P 388. Le composé à tester est administré pendant 5 jours (Jl-J5). Le contrôle positif du test est le 5-fluorouracile qui est administré dans les mêmes conditions.
[…] Un composé est considéré comme étant actif lorsque le rapport T/C est supérieur à 127 %.

Question: Which results are given for “diméthyl-4,5[(éthylamino-3 propyl-1)amino]-1 5-H pyrido[3',4':4,5]pyrrolo[3,2-c]pyridine [Dérivé N° 8]”?
Answer: taux de survivants [1]: 100 p. 100; IC50 [2]: 3.8 µM; Jour médian de survie ([3]; 5 mg/kg i.p. J1-J5): 13,4; T/C % ([3]; 5 mg/kg i.p. J1-J5): 116%; Survivants ([3]; 5 mg/kg i.p. J1-J5): 0; Jour médian de survie ([3]; 10 mg/kg i.p. J1-J5): 14,62; T/C % ([3]; 10 mg/kg i.p. J1-J5): 127%; Survivants ([3]; 10 mg/kg i.p. J1-J5): 0; Jour médian de survie ([3]; 20 mg/kg i.p. J1-J5): 16,75; T/C % ([3]; 20 mg/kg i.p. J1-J5): 145%; Survivants ([3]; 20 mg/kg i.p. J1-J5): 0; Jour médian de survie ([3]; 40 mg/kg i.p. J1-J5): 16,0; T/C % ([3]; 40 mg/kg i.p. J1-J5): 138%; Survivants ([3]; 40 mg/kg i.p. J1-J5): 0; Jour médian de survie ([3]; 80 mg/kg i.p. J1-J5): 17,25; T/C % ([3]; 80 mg/kg i.p. J1-J5): 149%; Survivants ([3]; 80 mg/kg i.p. J1-J5): 0
